Data set [1] has as its target T1, human 4-HPPD (Homo sapiens, UniProt P32754). The data set can be described thus: Inhibition assay (IC50/IC90): ochronotic pigment formation in recombinant E. coli expressing human 4-HPPD.
Method: To do so, an inhibition assay was set up to test the compounds at different concentrations. The bacterial suspension was incubated in a medium containing 1 mM IPTG, 75 µM Tyr, and the tested inhibitor, monitoring the formation of the ochronotic pigment at 405 nm after 24 h.
The pre-inoculum was prepared in LB medium (Lysogeny Broth) supplemented with glucose (1% final concentration) and kanamycin sulfate (50 µg/mL final concentration). […] The pre-inoculum was incubated overnight at 37 °C under agitation. After measuring the OD600 of the pre-inoculum using LB medium as a blank, it was diluted to a final optical density of 0.1 in LB medium supplemented with kanamycin (LBK). The cell culture was shaken at 37 °C, and the OD600 was measured every 45 min until reaching the mid-log phase (0.6–0.8). Protein expression was then induced by adding isopropyl-β-D-thiogalactopyranoside (IPTG) [26, 27, 28].
Briefly, serial dilutions of the inhibitors were prepared in 96-deep well standard plates, starting from a stock solution of 10^−2 M, and then 600 µL of bacterial suspension (see Section 4.1.1) supplemented with 1 mM IPTG and 75 µg/mL Tyr were added into each well.
In parallel, the control tests were set up as follows: • - Blank: culture medium without cell suspension. • - Negative control: cell suspension without IPTG and Tyr. • - Not-Inhibited control: cell suspension supplemented with 1 mM IPTG and 75 µg/mL Tyr.
The plate was incubated on a microplate shaker at 800 rpm for 24 h.
The plates were centrifuged at 3200× g for 10 min at 4 °C. Subsequently, 150 μL of supernatant (pigmented medium) was transferred to a 96-well standard plate, and the absorbance was measured at 405 nm using a multimode plate reader (EnVision 2105, PerkinElmer Inc., Waltham, MA, USA). GraphPad Prism 8 was used to perform a nonlinear regression analysis (Log[Inhibitor] vs. response—Variable slope (four parameters)) and to obtain the inhibition curve of the compounds.
Data set [2] addresses T1, human 4-HPPD. The experiment in a line: Residence time evaluation by optimized jump dilution method in recombinant E. coli expressing human 4-HPPD.
Method: (§1) 4-HPPD was initially incubated with each compound at saturating concentrations, and the exhaust medium (containing the inhibitor) was removed and replaced with fresh medium without the inhibitor, while the precursor (tyrosine) was added to the substrate. Enzyme activity was monitored by measuring the formation of ochronotic pigment consequent to the formation of HGA. Each inhibitor was analyzed in duplicate, and the analyses were repeated at least three times. In each experiment, control tests were set up as follows: a blank (control without induction), a control without inhibition, and a control with inhibition.
(§2) An optimized version of the jump dilution method was employed to evaluate the residence time of the novel candidate 4-HPPD inhibitors. […] This approach allowed precise tracking of reaction kinetics with high temporal resolution. After determining the IC50 and IC90 values for each tested compound, the enzyme was incubated with the inhibitors at concentrations corresponding to IC90. The exhaust medium containing the inhibitor was subsequently replaced with a fresh and inhibitor-free medium supplemented with tyrosine, the substrate precursor. The recovery of enzymatic activity was monitored over time using spectrophotometric analysis. This analytical approach provided precise measurements of the residence time for each inhibitor.
(§3) Each test was performed in duplicate, and the experiments were replicated at least three times. The tubes were half-capped and stirred at room temperature overnight.
(§4) The tubes were centrifuged at 2500× g for 10 min at 20 °C. The supernatant (exhaust medium) was discarded, while the pellet was resuspended in 7 mL of fresh LBK medium.
(§5) The tubes were incubated at 37 °C with stirring after taking the first sample (T0). Then, every 45 min for a period of 8 h, 220 μL were taken from each tube and placed in an Eppendorf tube, which was centrifuged at 13,000× g for 5 min at 4 °C. Subsequently, 200 μL of supernatant (pigmented medium) from each Eppendorf tube was transferred to a 96-well standard plate, and the absorbance at 405 nm was measured using a multimode plate reader (EnVision 2105, PerkinElmer Inc., Waltham, MA, USA).
(§6) Linear regression analysis was performed to calculate the slope values for each of the two curves corresponding to vs and v0 . These two parameters were then substituted into the equation below and reported for the nonlinear regression analysis of the data related to the tested compounds: Y=vsX+v0−vs /K (1−e^−KX) • Y: Absorbance value (HGA accumulation); • X: time (min); • vs : steady-state velocity; • v0: initial velocity; • K: koff .
Data set [3] has as its target T1, human 4-HPPD.
Method: as §1, §2, §3, §4, §5, §6

Read-outs that look alike come from different tables or passages of the source.

T1 sequence (P32754 whole entry): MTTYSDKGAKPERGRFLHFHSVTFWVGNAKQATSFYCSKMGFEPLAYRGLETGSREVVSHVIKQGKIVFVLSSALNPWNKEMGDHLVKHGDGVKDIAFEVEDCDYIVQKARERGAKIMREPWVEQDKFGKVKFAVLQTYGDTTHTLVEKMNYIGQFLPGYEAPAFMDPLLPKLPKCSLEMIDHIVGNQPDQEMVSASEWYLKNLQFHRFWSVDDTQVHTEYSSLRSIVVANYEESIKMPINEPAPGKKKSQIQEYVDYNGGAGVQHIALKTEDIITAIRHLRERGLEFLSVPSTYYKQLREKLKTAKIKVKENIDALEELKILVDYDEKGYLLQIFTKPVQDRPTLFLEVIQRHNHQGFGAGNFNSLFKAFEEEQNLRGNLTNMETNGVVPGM

As a reminder, the IC90 is the point of the concentration-response curve where the effect stands at 90%. What is called koff is the first-order rate constant of dissociation. As to `CC1(C)CC(=O)C(C(=O)c2ccc(C(F)(F)F)cc2[N+](=O)[O-])C(=O)C1` [c5, 5,5-dimethyl-2-(2-nitro-4-(trifluoromethyl)benzoyl)cyclohexane-1,3-dione], the IC90 in data set [1] was determined as 8000 nM. Also, in data set [2], the koff was 5e-05 s⁻¹ and the residence time was 352 ± 53.1 min. Moreover, the “residence time (τ)” value in data set [2] (derived from koff) is recorded as “higher residence time value than NTBC”.
As for `CS(=O)(=O)c1ccc(C(=O)C2C(=O)CCCC2=O)c(Cl)c1COCC(F)(F)F` [c2, tembotrione], the IC90 in data set [1] was 500 nM. Further, in data set [2], the koff is 0.000183 s⁻¹ and the residence time amounted to 94 ± 23.5 min. Also, in data set [3], the “half-life (t 1/2)” value turned out to be 1.0852 ± 0.27142 h.
With `CS(=O)(=O)c1ccc(C(=O)C2C(=O)CCCC2=O)c([N+](=O)[O-])c1` [c1, mesotrione], in data set [1], the IC90 was 2000 nM. Besides, in data set [2], the koff is 6.67e-05 s⁻¹ and the residence time amounted to 228 ± 27.6 min. The “residence time (τ)” value in data set [2] (derived from koff) was “higher residence time value than NTBC”.
Turning to `CS(=O)(=O)c1ccc(C(=O)C2C(=O)CCCC2=O)c(Cl)c1` [c3, Sulcotrione], the IC90 in data set [1] came out at 200 nM. Moreover, in data set [2], the koff was 0.000167 s⁻¹, the residence time was 120 ± 57.6 min and the “residence time (τ)” value is given as “higher residence time value than NTBC”. For the same compound, the “half-life (t 1/2)” value in data set [3] was 1.3911 ± 0.66537 h.
`CC1(C)CC(=O)C(C(=O)c2ccc([N+](=O)[O-])cc2Cl)C(=O)C1` [c4, 5,5-dimethylcyclohexane-2-(2-chloro-4-nitrobenzoyl)-1,3-dione]: the “half-life (t 1/2)” value in data set [3] is 1.4964 ± 0.23042 h.
As to `O=C1CCCC(=O)C1C(=O)c1ccc([N+](=O)[O-])cc1Cl` [c6, 2-(2-chloro-4-nitrobenzoyl)1,3-cyclohexanedione], the 90% effect concentration (IC90) in data set [1] was found to be 8000 nM. Moreover, in data set [2], the koff was 0.000133 s⁻¹ and the residence time amounted to 119 ± 4.87 min. Further, in data set [2] (derived from koff), the “residence time (τ)” value is reported as “higher residence time value than NTBC”.
For the compound `CC1(C)CC(=O)C=C(OC(=O)c2ccc(C(F)(F)F)cc2Cl)C1` [c7, 5,5-dimethyl-3-oxocyclohexenyl 2-chloro-4-(trifluoromethyl) benzoate], the “half-life (t 1/2)” value in data set [3] came to 0.3749 ± 0.04297 h.
